Results published in ChEMBL document CHEMBL4350974, “Synthesis and biological evaluation of methylpyrimidine-fused tricyclic diterpene analogs as novel oral anti-late-onset hypogonadism agents” (Eur J Med Chem, 2019).
Activity calls are given as the source filed them. The rule behind the calls is not given here.

How the values were obtained:
TM3 [1] = test: Induction of testosterone production in mouse TM3 cells assessed as increase in 3beta-HSD mRNA expression level after 24 hrs by qRT-PCR analysis; format: functional, cell-based
[2] = Cytotoxicity against mouse NIH/3T3 cells assessed as reduction in cell viability measured after 24 hrs by sulforhodamine B assay; format: cell-based, NIH3T3
TM3 [3] = test: Induction of autophagy in mouse TM3 cells assessed as increase in LC3-II protein level at 10 to 100 uM by Western blot analysis; format: functional, cell-based
[4] = Toxicity in cyclophosphamide - induced Sprague-Dawley rat model of partial androgen deficiency assessed as sperm motility at 100 mg/kg by semen analysis (reference value: 88.3 +/- 7.3 %); format: organism-based; conditions: in vivo
[5] = Cytotoxicity against human HAF cells assessed as reduction in cell viability measured after 24 hrs by sulforhodamine B assay; format: cell-based
TM3 [6] = test: Induction of autophagy in mouse TM3 cells assessed as increase in LC3 protein level at 10 to 100 uM after 24 hrs by DAPI staining based confocal microscopic method; format: functional, cell-based
[7] = AUC (0 to infinity) in Sprague-Dawley rat plasma at 50 mg/kg, po by LC/MS analysis; format: ADME, organism-based; set-up: dose 50 mg/kg, route oral, time infinity
[8] = Cmax in Sprague-Dawley rat plasma at 50 mg/kg, po up to 12 hrs by LC/MS analysis; format: ADME, organism-based; set-up: dose 50 mg/kg, route oral
[9] = Toxicity in cyclophosphamide - induced Sprague-Dawley rat model of partial androgen deficiency assessed as effect on spleen at 50 to 100 mg/kg by HE staining based histopathological analysis; format: organism-based; conditions: in vivo
TM3 [10] = test: Induction of testosterone production in mouse TM3 cells assessed as increase in StAR protein expression level after 24 hrs by Western blot analysis; format: functional, cell-based
Rattus norvegicus [11] = species on record: Rattus norvegicus; test: Anti late-onset hypogonadism activity in cyclophosphamide-induced Sprague-Dawley rat model of partial androgen deficiency assessed as prevention of testicular atrophy; format: functional, organism-based
[12] = Cytotoxicity against human NCM460 cells assessed as reduction in cell viability measured after 24 hrs by sulforhodamine B assay; format: cell-based
[13] = Oral bioavailability in Sprague-Dawley rat at 50 mg/kg by LC/MS analysis; format: ADME, organism-based; conditions: in vivo
[14] = Toxicity in cyclophosphamide - induced Sprague-Dawley rat model of partial androgen deficiency assessed as sperm viability at 100 mg/kg by semen analysis (reference value: 95.1 +/- 3.2 %); format: organism-based; conditions: in vivo
Rattus norvegicus [15] = test: Anti late-onset hypogonadism activity in cyclophosphamide-induced Sprague-Dawley rat model of partial androgen deficiency assessed as increase in LC3 expression at 50 to 100 mg/kg by immunohistochemical analysis; format: functional, organism-based
[16] = Half-life in Sprague-Dawley rat plasma at 5 mg/kg, iv up to 5 hrs by LC/MS analysis; format: ADME, organism-based
[17] = Toxicity in cyclophosphamide - induced Sprague-Dawley rat model of partial androgen deficiency assessed as effect on lung at 50 to 100 mg/kg by HE staining based histopathological analysis; format: organism-based; conditions: in vivo
[18] = Volume of distribution in Sprague-Dawley rat plasma at 50 mg/kg, po up to 12 hrs by LC/MS analysis; format: ADME, organism-based; conditions: in vivo
[19] = Toxicity in cyclophosphamide - induced Sprague-Dawley rat model of partial androgen deficiency assessed as swelling of seminiferous tubules at 50 to 100 mg/kg by HE staining based histopathological analysis; format: organism-based; conditions: in vivo
Rattus norvegicus [20] = test: Anti late-onset hypogonadism activity in cyclophosphamide-induced Sprague-Dawley rat model of partial androgen deficiency assessed as increase in 3 beta- HSD mRNA level at 100 mg/kg by RT-PCR analysis; format: functional, organism-based
[21] = Clearance in Sprague-Dawley rat at 50 mg/kg, po up to 12 hrs by LC/MS analysis; format: ADME, organism-based; conditions: in vivo
[22] = Toxicity in cyclophosphamide - induced Sprague-Dawley rat model of partial androgen deficiency assessed as sperm motility at 50 mg/kg by semen analysis (reference value: 88.3 +/- 7.3 %); format: organism-based; conditions: in vivo
[23] = Toxicity in cyclophosphamide-induced Sprague-Dawley rat model of partial androgen deficiency assessed as decrease in body weight at 50 to 100 mg/kg, po qd administered for 4 weeks and measured every 3 days; format: organism-based; conditions: in vivo
Rattus norvegicus [24] = test: Anti late-onset hypogonadism activity in cyclophosphamide-induced Sprague-Dawley rat model of partial androgen deficiency assessed as weight of testis at 100 mg/kg, po qd administered for 4 weeks (reference value: 1.47 +/- 0.13 g); format: functional
[25] = Cytotoxicity against mouse TM3 cells assessed as reduction in cell viability measured after 24 hrs by sulforhodamine B assay; format: cell-based
TM3 [26] = test: Induction of autophagy in mouse TM3 cells assessed as dephosphorylation of mTOR at 10 to 100 uM by Western blot analysis; format: functional, cell-based
TM3 [27] = test: Induction of testosterone production in mouse TM3 cells assessed as increase in 3beta-HSD protein expression level after 24 hrs by Western blot analysis; format: functional, cell-based
Rattus norvegicus [28] = test: Effect on sperm production in cyclophosphamide - induced Sprague-Dawley rat model of partial androgen deficiency assessed as increase in SYCP3 protein expression at 50 to 100 mg/kg by immunohistochemical analysis; format: functional, organism-based
Rattus norvegicus [29] = test: Anti late-onset hypogonadism activity in cyclophosphamide-induced Sprague-Dawley rat model of partial androgen deficiency assessed as inhibition of Leydig cells apoptosis at 50 to 100 mg/kg, po qd administered for 4 weeks by DAPI staining based TUNEL assay; format: functional, organism-based
Rattus norvegicus [30] = test: Anti late-onset hypogonadism activity in cyclophosphamide-induced Sprague-Dawley rat model of partial androgen deficiency assessed as weight of seminal vesicles at 100 mg/kg, po qd administered for 4 weeks (reference value: 1.33 +/- 0.26 g); format: functional
[31] = Toxicity in cyclophosphamide - induced Sprague-Dawley rat model of partial androgen deficiency assessed as effect on Sertoli cells arrangement at 50 to 100 mg/kg by HE staining based histopathological analysis; format: organism-based; conditions: in vivo
[32] = Clearance in Sprague-Dawley rat at 5 mg/kg, iv up to 5 hrs by LC/MS analysis; format: ADME, organism-based; conditions: in vivo
Rattus norvegicus [33] = test: Anti late-onset hypogonadism activity in cyclophosphamide-induced Sprague-Dawley rat model of partial androgen deficiency assessed as increase in StAR mRNA level at 50 to 100 mg/kg by RT-PCR analysis; format: functional, organism-based
[34] = Toxicity in cyclophosphamide - induced Sprague-Dawley rat model of partial androgen deficiency assessed as effect on heart at 50 to 100 mg/kg by HE staining based histopathological analysis; format: organism-based; conditions: in vivo
[35] = AUC (0 to infinity) in Sprague-Dawley rat plasma at 5 mg/kg, iv by LC/MS analysis; format: ADME, organism-based; set-up: dose 5 mg/kg, route intravenous, time infinity
[36] = Toxicity in cyclophosphamide - induced Sprague-Dawley rat model of partial androgen deficiency assessed as effect on liver at 50 to 100 mg/kg by HE staining based histopathological analysis; format: organism-based; conditions: in vivo
Rattus norvegicus [37] = test: Anti late-onset hypogonadism activity in cyclophosphamide-induced Sprague-Dawley rat model of partial androgen deficiency assessed as increase in serum total testosterone level at 50 to 100 mg/kg, po qd administered for 4 weeks and measured every 2 weeks by ELISA; format: functional, organism-based
[38] = Volume of distribution in Sprague-Dawley rat plasma at 5 mg/kg, iv up to 5 hrs by LC/MS analysis; format: ADME, organism-based

For CNC(=O)c1cc2c(cc1OC)[C@@]1(C)Cc3cnc(C)nc3C(C)(C)C1CC2 (mixture of isomers), the Activity (TM3 [1]) was “Dose-dependent effect”, the CC50 at 24 h [2] was > 200 µM and the Activity (TM3 [3]) was “Active”. The Activity [4] was 94.6%, the CC50 at 24 h [5] was > 200 µM and the Activity (TM3 [6]) was “Active”. For the same compound, the AUC(0-inf) [7] was 3140 ng·h/mL, the Cmax [8] was 239 ng/mL and the Activity [9] was “Non-Toxic”. The Activity (TM3 [10]) was “Dose-dependent effect”, the Activity (Rattus norvegicus [11]) was “Active” and the CC50 at 24 h [12] was > 200 µM. For the same compound, the bioavailability [13] was 57%, the Activity [14] was 98% and the Activity (Rattus norvegicus [15]) was “Active”. The half-life [16] was 7.59 h, the Activity [17] was “Non-Toxic” and the Vd [18] was 106.27 L/kg. The Activity [19] was “Toxic”, the Activity (Rattus norvegicus [20]) was “Active” and the CL/F [21] was 270 mL/min/kg. The Activity [22] was 92.6%, the Activity [23] was “Non-Toxic” and the Activity (Rattus norvegicus [24]) was 1.66 g. For the same compound, the CC50 at 24 h [25] was > 200 µM, the Activity (TM3 [26]) was “Active” and the Activity (TM3 [27]) was “Dose-dependent effect”. For the same compound, the Activity (Rattus norvegicus [28]) was “Active”, the inhibition (Rattus norvegicus [29]) was “Active” and the Activity (Rattus norvegicus [30]) was 1.68 g. For the same compound, the Activity [31] was “Toxic”, the clearance [32] was 155 mL/min/kg and the Activity (Rattus norvegicus [33]) was “Active”. For the same compound, the Activity [34] was “Non-Toxic”, the AUC(0-inf) [35] was 551 ng·h/mL and the Activity [36] was “Non-Toxic”. For the same compound, the Activity (Rattus norvegicus [37]) was “Active” and the Vd [38] was 103 L/kg.
